Earlier results, collected in patent publication US20250120404A1, “BOTANICAL PESTICIDE COMPOSITIONS” (Mosquito Squad Franchising SPE LLC, priority 2023, published 2025).

System: mosquitoes
Settings: average reported toxicity from literature, concentration/biomass

SMILES | Concentration of Oil Extract Necessary for Mosquito Death
CCC(=O)OCCc1ccccc1 [2-phenethyl proprionate] | Varying levels
C=CCc1ccc(O)c(OC)c1 [Eugenol] | Varying levels
CC(C)=CCC/C(C)=C/CO [Geraniol] | Varying levels
